In PubChem BioAssay AID1918999 (Molecular Pharmacology Branch, DTP, NCI, 2023):

System: 556581-035-R-J1-PDC complex spheroid growth
Experiment: Anticancer human tumor 556581-035-R-J1-PDC patient-derived ovarian carcinoma cell line growth inhibition [AhR]
Settings: for IC50: curve of first compound; for viability, T/C: stronger effect = lower value
How it was run: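 Complex tumor spheroids co-cultured with HUVEC and human MSC stroma; AhR antagonists tested in combination with standard-of-care and investigational agents. Top concentration at or near clinical Cmax (else 10 microM), half-log dilutions; growth expressed as percent test/control.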

[1] = second compound 0.1 µM, first compound 0.0316 µM
[2] = second compound 0.1 µM, first compound 0.1 µM
[3] = second compound 0.1 µM, first compound 0.316 µM
[4] = second compound 0.1 µM, first compound 1 µM
[5] = second compound 0.1 µM, first compound 3.16 µM
[6] = second compound 0.1 µM, first compound 10 µM
[7] = second compound 0.316 µM, first compound 0.0316 µM
[8] = second compound 0.316 µM, first compound 0.1 µM
[9] = second compound 0.316 µM, first compound 0.316 µM
[10] = second compound 0.316 µM, first compound 1 µM
[11] = second compound 0.316 µM, first compound 3.16 µM
[12] = second compound 0.316 µM, first compound 10 µM
[13] = second compound 1 µM, first compound 0.0316 µM
[14] = second compound 1 µM, first compound 0.1 µM
[15] = second compound 1 µM, first compound 0.316 µM
[16] = second compound 1 µM, first compound 1 µM
[17] = second compound 1 µM, first compound 3.16 µM
[18] = second compound 1 µM, first compound 10 µM
[19] = second compound 3.16 µM, first compound 0.0316 µM
[20] = second compound 3.16 µM, first compound 0.1 µM
[21] = second compound 3.16 µM, first compound 0.316 µM
[22] = second compound 3.16 µM, first compound 1 µM
[23] = second compound 3.16 µM, first compound 3.16 µM
[24] = second compound 3.16 µM, first compound 10 µM
[25] = second compound 10 µM, first compound 0.0316 µM
[26] = second compound 10 µM, first compound 0.1 µM
[27] = second compound 10 µM, first compound 0.316 µM
[28] = second compound 10 µM, first compound 1 µM
[29] = second compound 10 µM, first compound 3.16 µM
[30] = second compound 10 µM, first compound 10 µM
[31] = second compound 0.1 µM, first compound 0.00316 µM
[32] = second compound 0.1 µM, first compound 0.01 µM
[33] = second compound 0.316 µM, first compound 0.00316 µM
[34] = second compound 0.316 µM, first compound 0.01 µM
[35] = second compound 1 µM, first compound 0.00316 µM
[36] = second compound 1 µM, first compound 0.01 µM
[37] = second compound 3.16 µM, first compound 0.00316 µM
[38] = second compound 3.16 µM, first compound 0.01 µM
[39] = second compound 10 µM, first compound 0.00316 µM
[40] = second compound 10 µM, first compound 0.01 µM
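For viability, T/C in this document: compound exposure lasted 7 days; 100% = DMSO vehicle control growth.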

Structure (SMILES) | IC50 (second compound 0.1 µM) | IC50 (second compound 0.316 µM) | IC50 (second compound 1 µM) | IC50 (second compound 3.16 µM) | IC50 (second compound 10 µM) | viability, T/C [1] | viability, T/C [2] | viability, T/C [3] | viability, T/C [4] | viability, T/C [7] | viability, T/C [8] | viability, T/C [9] | viability, T/C [10] | viability, T/C [13] | viability, T/C [14] | viability, T/C [15] | viability, T/C [19] | viability, T/C [20] | viability, T/C [25] | viability, T/C [26] | also measured
CC(C)c1c(-c2ccccc2)nc2c(C#N)c[nH]n2c1=O + CC(CO)NC(=O)c1cc(-c2ccc(Cl)cc2)nn(-c2cnn(C)c2)c1=O | > 10000 nM | > 10000 nM | > 10000 nM | > 10000 nM | > 10000 nM | 109% | 97.8% | 95.2% | 102% | 106% | 105% | 95.9% | 96.5% | 110% | 112% | 108% | 106% | 95.5% | 108% | 117% | viability, T/C [5]: 90.2%; viability, T/C [6]: 97.4%; viability, T/C [11]: 106%; viability, T/C [12]: 97.5%; viability, T/C [16]: 107%; viability, T/C [17]: 113%; viability, T/C [18]: 95.8%; viability, T/C [21]: 116%; viability, T/C [22]: 100%; viability, T/C [23]: 106%; viability, T/C [24]: 99.2%; viability, T/C [27]: 111%; viability, T/C [28]: 97.8%; viability, T/C [29]: 104%; viability, T/C [30]: 97.1%
CC[C@@]1(O)C(=O)OCc2c1cc1n(c2=O)Cc2cc3c(CN(C)C)c(O)ccc3nc2-1 + Cc1ccccc1N=Nc1ccc(NC(=O)c2ccnn2C)c(C)c1 | > 100 nM | > 100 nM | > 100 nM | > 100 nM | > 100 nM | 70.4% | 50.6% |  |  | 69.1% | 54.9% |  |  | 65% | 60.3% |  | 62.9% | 53.1% | 64.7% | 55.1% | viability, T/C (second compound 0.1 µM, first compound 0.000316 µM): 94.8%; viability, T/C (second compound 0.1 µM, first compound 0.001 µM): 98.5%; viability, T/C [31]: 91.5%; viability, T/C [32]: 82.3%; viability, T/C (second compound 0.316 µM, first compound 0.000316 µM): 108%; viability, T/C (second compound 0.316 µM, first compound 0.001 µM): 104%; viability, T/C [33]: 92.6%; viability, T/C [34]: 73.7%; viability, T/C (second compound 1 µM, first compound 0.000316 µM): 101%; viability, T/C (second compound 1 µM, first compound 0.001 µM): 93.7%; viability, T/C [35]: 84.7%; viability, T/C [36]: 79.1%; viability, T/C (second compound 3.16 µM, first compound 0.000316 µM): 81.3%; viability, T/C (second compound 3.16 µM, first compound 0.001 µM): 83%; viability, T/C [37]: 83.4%; viability, T/C [38]: 72%; viability, T/C (second compound 10 µM, first compound 0.000316 µM): 89.2%; viability, T/C (second compound 10 µM, first compound 0.001 µM): 91.4%; viability, T/C [39]: 91.1%; viability, T/C [40]: 69%
COc1cc(C2c3cc4c(cc3C(OC3OC5COC(C)OC5C(O)C3O)C3COC(=O)C23)OCO4)cc(OC)c1O (stereo not given) + Cc1ccccc1N=Nc1ccc(NC(=O)c2ccnn2C)c(C)c1 | > 10000 nM | > 10000 nM | > 10000 nM | > 10000 nM | > 10000 nM | 109% | 101% | 85.4% | 71% | 110% | 106% | 85.1% | 75.7% | 95.9% | 106% | 92.1% | 91.9% | 104% | 93.2% | 98% | viability, T/C [5]: 68.8%; viability, T/C [6]: 52.5%; viability, T/C [11]: 71.5%; viability, T/C [12]: 51.4%; viability, T/C [16]: 69.7%; viability, T/C [17]: 66.5%; viability, T/C [18]: 53.9%; viability, T/C [21]: 94.2%; viability, T/C [22]: 72%; viability, T/C [23]: 62.5%; viability, T/C [24]: 58.7%; viability, T/C [27]: 89.5%; viability, T/C [28]: 75.8%; viability, T/C [29]: 69.7%; viability, T/C [30]: 56.8%
Nc1ncn(C2CC(O)C(CO)O2)c(=O)n1 (stereo not given) + Cc1ccccc1N=Nc1ccc(NC(=O)c2ccnn2C)c(C)c1 | > 1000 nM | > 1000 nM | > 1000 nM | > 1000 nM | > 1000 nM | 90.4% | 84.7% | 85.1% | 77.4% | 85.9% | 89.6% | 78.7% | 74.1% | 95.1% | 92.3% | 89.2% | 81% | 79.6% | 71.2% | 72.4% | viability, T/C [31]: 95.9%; viability, T/C [32]: 95.5%; viability, T/C [33]: 108%; viability, T/C [34]: 98.8%; viability, T/C [35]: 98.5%; viability, T/C [36]: 97.7%; viability, T/C [16]: 78.1%; viability, T/C [37]: 86.7%; viability, T/C [38]: 81.6%; viability, T/C [21]: 73%; viability, T/C [22]: 82.8%; viability, T/C [39]: 85.4%; viability, T/C [40]: 77.9%; viability, T/C [27]: 77.6%; viability, T/C [28]: 75.3%

Further lines, with some results ahead:

IC50 (second compound 0.1 µM) | IC50 (second compound 0.316 µM) | IC50 (second compound 1 µM) | IC50 (second compound 3.16 µM) | IC50 (second compound 10 µM) | Structure (SMILES) | viability, T/C [1] | viability, T/C [2] | viability, T/C [3] | viability, T/C [4] | viability, T/C [7] | viability, T/C [8] | viability, T/C [9] | viability, T/C [10] | viability, T/C [13] | viability, T/C [14] | viability, T/C [15] | viability, T/C [19] | viability, T/C [20] | viability, T/C [25] | viability, T/C [26] | also measured
5380 nM | 6650 nM | 7720 nM | > 10000 nM | > 10000 nM | COc1ccc([C@@H](O)c2cc(-c3ncnc4cc(N5CCOCC5)ccc34)c(F)cc2Cl)nn1 + CC(CO)NC(=O)c1cc(-c2ccc(Cl)cc2)nn(-c2cnn(C)c2)c1=O | 98% | 105% | 92.9% | 69.7% | 110% | 108% | 99.9% | 69.5% | 104% | 117% | 108% | 113% | 112% | 113% | 110% | viability, T/C [5]: 61%; viability, T/C [6]: 41%; viability, T/C [11]: 58.7%; viability, T/C [12]: 45%; viability, T/C [16]: 91.1%; viability, T/C [17]: 61.9%; viability, T/C [18]: 46.4%; viability, T/C [21]: 105%; viability, T/C [22]: 85.3%; viability, T/C [23]: 64.3%; viability, T/C [24]: 51.7%; viability, T/C [27]: 109%; viability, T/C [28]: 82%; viability, T/C [29]: 62.4%; viability, T/C [30]: 53.2%
423 nM | 416 nM | 519 nM | 489 nM | 493 nM | COc1cccc2c1C(=O)c1c(O)c3c(c(O)c1C2=O)CC(O)(C(=O)CO)CC3OC1CC(N)C(O)C(C)O1 (stereo not given) + Cc1ccccc1N=Nc1ccc(NC(=O)c2ccnn2C)c(C)c1 | 83.7% | 78% | 60.2% | 20.7% | 82.7% | 77.9% | 59.9% | 19.2% | 85.7% | 93.8% | 70.9% | 83.2% | 79.9% | 79.2% | 85.7% | viability, T/C [5]: 2.13%; viability, T/C [6]: 2.2%; viability, T/C [11]: 3.1%; viability, T/C [12]: 3.13%; viability, T/C [16]: 21.4%; viability, T/C [17]: 3.42%; viability, T/C [18]: 2.49%; viability, T/C [21]: 68.3%; viability, T/C [22]: 20.1%; viability, T/C [23]: 4.16%; viability, T/C [24]: 1.64%; viability, T/C [27]: 70.2%; viability, T/C [28]: 17.2%; viability, T/C [29]: 2.04%; viability, T/C [30]: 2.28%
